The values that follow come from patent US11203586B2, “Iridinesulfonamide compound and use method thereof” (Chia Tai Tianqing Pharmaceutical Group Co., Ltd., priority 2016, dated 2021).

Data set [1] concerns the target T1, IDH1 (R132H) (Homo sapiens (Human), UniProt O75874, R132H). In words: Enzyme assay, NADPH decrease detected with Diaphorase/Resazurin. The conditions noted are these: 40 nM enzyme, 20 μM NADPH, incubated at 23° C. for 16 hours before α-KG; 12 concentrations. Type of data set: biochemical. An excerpt:
(§1) Resazurin is a traditional redox dye, and after a redox reaction, it can be reduced from a blue resazurin without fluorescence to a pink fluorescent substance, resorufin, which can be measured and quantified with relative fluorescence unit (RFU) of fluorophotometer (Ex=530-570 nm, Em=590-620 nm). At present, resazurin is widely used for determining the viability of bacteria, cells, etc. and the enzyme activity detection of oxidoreductase. We detected the decrease of cofactor NADPH to determine the inhibitory activity of a compound against IDHm and detected the generation of cofactor NADPH to determine the inhibitory activity of a compound against IDH WT.
(§2) The compound was pre-incubated with IDHm and NADPH, and then the reaction was initiated by adding α-KG and performed for certain time under a linear condition.
(§3) Then, Diaphorase (lipoamide dehydrogenase) and the corresponding substrate Resazurin were added thereto for detection. Lipoamide dehydrogenase terminated the IDH2m reaction by decreasing the available cofactor NADPH, which oxidized NADPH to NADP, and reduced resazurin to high fluorescent resorufin. The amount of the remaining cofactor NADPH after a specific reaction time was quantified via an easily detectable fluorophore.
(§4) The specific operation was as follows: 2.5 μl of the compound diluted in a 3-fold gradient was added to a 384-well plate, followed by adding 5 μL of the reaction buffer (20 mM Tris-HCl, pH 7.5; 150 mM NaCl; 10 mM MgCl2; 0.4 mg/mL BSA (Bovine Serum Albumin) and 2 mM DTT (dithiothreitol)) containing 40 nM IDH1 (R132H/R132C) and 20 μM NADPH. Then, the above test mixture was incubated at 23° C. for 16 hours, and then 2.5 μL of the reaction buffer containing 4 mM α-KG was added to initiate the reaction. After they were incubated for 60 minutes at room temperature, 5 μL of the termination mixture (0.4 U/ml Diaphorase and 20 μM Resazurin) formulated with the reaction buffer was added to convert resazurin to resorufin, so as to measure the amount of the remaining NADPH. After incubating at 23° C. for 10 minutes, fluorescence values were determined through Flexstation 3 at Ex535/Em595. The enzyme activity of each compound was respectively determined at 12 concentrations, and the data were calculated using the software GraFit6.0 (Erithacus Software) to obtain the IC50 value of each compound.
(Alamar Blue is a resazurin reagent that responds to reducing activity.)

The target of a further data set is IDH1 (R132C) (Homo sapiens (Human), UniProt O75874, R132C). Described as above. The conditions noted are these: 40 nM enzyme, 20 μM NADPH, incubated at 23° C. for 16 hours before α-KG; 12 concentrations. Type of data set: biochemical.
Excerpt: as §1, §2, §3, §4

A further data set is described as follows: Pharmacokinetic test. The conditions noted are these: male SD rats, oral 5 mg/kg. Type of data set: in vivo. How it is done:
Male SD rats were from Beijing Vital River Laboratory Animal Technology Co., Ltd., and divided into groups (3 rats per group). The rats were intragastically administered with the test sample suspension (5 mg/kg) via a single peroral administration, respectively. The animals were fasted overnight before this study. The fasting time period was from 10 hours before administration to 4 hours after administration. Blood samples were taken at 0.25, 0.5, 1, 2, 4, 6, 8 and 24 hours after administration. After the rats were anesthetized with isoflurane using an anesthesia machine for small animal, and then 0.3 mL whole blood samples were taken from the fundus venous plexus. The blood samples were placed in heparin anticoagulant tubes, and centrifuged for 5 min at 4° C. and 4000 rpm. The plasma was transferred to centrifuge tubes, and stored at −80° C. until analysis. The samples in plasma were extracted through protein precipitation. The liquid extract was analyzed by LC-MS/MS, mobile phase A: water (0.1% of formic acid), B: acetonitrile (0.1% of formic acid), strong needle wash solution: acetonitrile:water=9:1, weak needle wash solution: acetonitrile:water=1:9.

For data set [2], the target named is T1, IDH1 (R132H). The data set is described as follows: Binding mode determination, free compound by LC-MS/MS. The conditions noted are these: incubated with IDH1 (R132H), FIG. 1. As to the method: The compounds were incubated with IDH1 (R132H), and then divided into N parts. The reaction was terminated by adding acetonitrile at different time points, and the organic phase was separated by centrifugation. The resulting samples were stored at −80° C. until analysis, and the concentration of the compounds in free from were analyzed by LC-MS/MS, mobile phase A: water (0.1% of formic acid), B: acetonitrile (0.1% of formic acid), strong needle wash solution: acetonitrile:water=9:1, weak needle wash solution: acetonitrile:water=1:9.

[3] abbreviates: rat, 0.5% MC, 0.2% Tween80, plasma.

T1 sequence (O75874 whole entry R132H): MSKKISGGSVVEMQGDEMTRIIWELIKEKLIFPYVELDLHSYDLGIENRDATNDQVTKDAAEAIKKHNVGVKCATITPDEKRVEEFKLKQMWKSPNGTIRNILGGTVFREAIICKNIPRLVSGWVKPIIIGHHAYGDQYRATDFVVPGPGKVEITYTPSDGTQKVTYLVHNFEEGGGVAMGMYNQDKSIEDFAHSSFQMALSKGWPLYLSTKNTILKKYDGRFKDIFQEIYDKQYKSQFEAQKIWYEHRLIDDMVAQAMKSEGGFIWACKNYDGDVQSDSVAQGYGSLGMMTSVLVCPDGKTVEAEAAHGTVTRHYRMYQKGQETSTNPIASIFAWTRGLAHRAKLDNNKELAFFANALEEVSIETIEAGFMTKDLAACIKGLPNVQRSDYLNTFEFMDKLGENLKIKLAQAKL
Sequence of IDH1 (R132C) (O75874 whole entry R132C): as the sequence (O75874 whole entry R132H) above, with H132C counted along it

On to `O=C(NC1CC(F)(F)C1)[C@H](c1ccccc1Cl)N(C(=O)CNS(=O)(=O)N1CC1)c1cccc(F)c1` [Example 25, (S)-2-(aziridine-1-sulfonylamino)-N-(1-(2-chlorophenyl)-2-((3,3-difluorocyclobutyl)amino)-2-oxoethyl)-N-(3-fluorophenyl)acetamide], for which the IC50 against IDH1 (R132H) [1] and against IDH1 (R132C) was under 20 nM each time.
The compound `O=C(NC1CC(F)(F)C1)C(c1ccccc1Cl)N(C(=O)CNS(=O)(=O)N1CC1)c1cccc(F)c1` (centres unmarked) [Example 10, 2-(aziridine-1-sulfonylamino)-N-(1-(2-chlorophenyl)-2-((3,3-difluorocyclobutyl)amino)-2-oxoethyl)-N-(3-fluorophenyl)acetamide] returned a half-maximal inhibitory concentration (IC50) against IDH1 (R132H) [1] of under 20 nM. Further, the “drug concentration in vivo over time” value in the data set “Pharmacokinetic test” (PK curve FIG. 2) is reported as “decreased drug concentration in vivo over time”. In addition, in “Pharmacokinetic test” (setting [3]), the peak level (Cmax) was 508 ng/mL, the Tmax was 15 min and the half-life is 90 min. For the same compound, in “Pharmacokinetic test” (rat, 0.5% MC, 0.2% Tween80, plasma, read-out: AUCINF—obs), the AUC(0-inf) was 794 ng·h/mL. Moreover, on IDH1 (R132H) [2], the “binding of the compound to the enzyme over time” value is on record as “increased over time”.
Compound `O=C(NC1CCCCC1)C(c1ccccc1Cl)N(C(=O)CS(=O)(=O)N1CC1)c1cccc(F)c1` (centres unmarked) [Example 15, 2-(aziridin-1-ylsulfonyl)-N-(1-(2-chlorophenyl)-2-(cyclohexylamino)-2-oxoethyl)-N-(3-fluorophenyl)acetamide] returned an IC50 against IDH1 (R132H) [1] of under 20 nM.
Same read-out and setting: for `CC(C)[C@@H]1CN1S(=O)(=O)N(CC(=O)N(c1cccc(F)c1)C(C(=O)NC1CCCCC1)c1ccccc1Cl)C(=O)OC(C)(C)C` (some centres unmarked) [Example 7] the value was under 10000 nM.
For `O=C(NC1CC(F)(F)C1)[C@@H](c1ccccc1Cl)N(C(=O)[C@@H]1CCN(S(=O)(=O)N2CC2)C1)c1cccc(F)c1` [Example 37, (R)-1-(aziridin-1-ylsulfonyl)-N—((R)-1-(2-chlorophenyl)-2-((3,3-difluorocyclobutyl)amino)-2-oxoethyl)-N-(3-fluorophenyl)pyrrolidine-3-carboxamide], at IDH1 (R132H) [1], the IC50 is under 1000 nM.
On the same count and under the same terms, next, `O=C(NC1CCCCC1)C(c1ccccc1Cl)N(C(=O)CCNS(=O)(=O)N1CC1)c1cccc(F)c1` (centres unmarked) [Example 5, 3-(aziridine-1-sulfonylamino)-N-(1-(2-chlorophenyl)-2-(cyclohexylamino)-2-oxoethyl)-N-(3-fluorophenyl)propanamide]: under 20 nM; `O=C(NC1CCCCC1)C(c1ccccc1Cl)N(C(=O)CCCCS(=O)(=O)N1CC1)c1cccc(F)c1` (centres unmarked) [Example 20, 5-(aziridin-1-ylsulfonyl)-N-(1-(2-chlorophenyl)-2-(cyclohexylamino)-2-oxoethyl)-N-(3-fluorophenyl)pentanamide]: under 20 nM.
For `C[C@H]1CN1S(=O)(=O)NCC(=O)N(c1cc(F)cc(C#N)c1)C(C(=O)NC1CC(F)(F)C1)c1ccccc1Cl` (stereo partly drawn) [Example 33, 2-(2-chlorophenyl)-2-(N-(3-cyano-5-fluorophenyl)-2-(((S)-2-methylaziridine)-1-sulfonylamino)acetamido)-N-(3,3-difluorocyclobutyl)acetamide], the IC50 against IDH1 (R132H) [1] is under 100 nM.
Same read-out and setting: next, `O=C(NC1CC(F)(F)C1)C(c1ccccc1Cl)N(C(=O)CCS(=O)(=O)N1CC1)c1cccc(F)c1` (centres unmarked) [Example 14, 3-(aziridin-1-ylsulfonyl)-N-(1-(2-chlorophenyl)-2-((3,3-difluorocyclobutyl)amino)-2-oxoethyl)-N-(3-fluorophenyl)propanamide]: under 20 nM; `O=C(NC1CC(F)(F)C1)[C@H](c1ccccc1Cl)N(C(=O)[C@@H]1CCN(S(=O)(=O)N2CC2)C1)c1cccc(F)c1` [Example 36, (R)-1-(aziridin-1-ylsulfonyl)-N—((S)-1-(2-chlorophenyl)-2-((3,3-difluorocyclobutyl)amino)-2-oxoethyl)-N-(3-fluorophenyl)pyrrolidine-3-carboxamide]: under 20 nM.
On IDH1 (R132H) [1], `O=C(NC1CC(F)(F)C1)[C@H](c1ccccc1Cl)N(C(=O)[C@H]1CCN(S(=O)(=O)N2CC2)C1)c1cccc(F)c1` [Example 34, (S)-1-(aziridin-1-ylsulfonyl)-N—((S)-1-(2-chlorophenyl)-2-((3,3-difluorocyclobutyl)amino)-2-oxoethyl)-N-(3-fluorophenyl)pyrrolidine-3-carboxamide] registered an IC50 of under 20 nM.
Still for that read-out and setting: for `O=C(NC1CCC(F)(F)CC1)C(c1ccccc1Cl)N(C(=O)CNS(=O)(=O)N1CC1)c1cccc(F)c1` (centres unmarked) [Example 30, 2-(aziridine-1-sulfonylamino)-N-(1-(2-chlorophenyl)-2-(4,4-difluorocyclohexylamino)-2-oxoethyl)-N-(3-fluorophenyl)acetamide] the value was under 20 nM; for `O=C(NC1CCCCC1)C(c1ccccc1Cl)N(C(=O)CNS(=O)(=O)N1CC1)c1cccc(F)c1` (centres unmarked) [Example 1, 2-(aziridinyl-1-sulfonylamino)-N-(1-(2-chlorophenyl)-2-(cyclohexylamino)-2-oxoethyl)-N-(3-fluorophenyl)acetamide], under 20 nM.

One may read the IC50 as the concentration needed to halve the response being measured. The low end stands for greater potency, the high end for weaker potency. The term Cmax denotes the maximum level reached in the sampled fluid or tissue. By Tmax is commonly meant the time at which the peak concentration occurs. A word on the half-life: it is the time needed for the level to fall by half in the phase considered. Read a low half-life as rapid decline.
